Literature values as cited in patent publication US7312207B2, “Topical steroid cream formulations” (Taro Pharmaceuticals North America, Inc., priority 2004, dated 2007).

Which “solubility in ethyl alcohol” value (ethyl alcohol) does the source give for `C[C@@H]1C[C@H]2[C@@H]3CCC4=CC(=O)C=C[C@]4(C)[C@@]3(Cl)[C@@H](O)C[C@]2(C)[C@@]1(OC(=O)c1ccco1)C(=O)CCl` [Mometasone furoate, 9(alpha), 21-Dichloro-11(beta), 17-dihydroxy-16(alpha)-methylpregna-1,4-diene-3,20 dione 17-(2-furoate)] here?
The value was “moderately soluble”.

What about the solubility in octanol (octanol) of the same molecule?
Its solubility in octanol is “slightly soluble”.

What about the solubility in water (water) of the same molecule?
Its solubility in water is “insoluble”.
